Measurements from patent US12653901B2, “Anti-EDB antibodies and antibody-drug conjugates” (Pfizer Inc., priority 2016, dated 2026).
Entries after “also recorded” stand apart in the source; their conditions may differ. Where two headings read alike, the source gives them in different places. Where a SMILES comes first, the peptide text is derived from it. [ ]: non-standard residue; d: D form. The star is where a group is joined. Dolaproine = CO[C@@H]([C@@H]1CCCN1)[C@@H](C)C(=O)O; Dil = CC[C@H](C)[C@H](NC)[C@@H](CC(=O)O)OC; Doe = c1ccc(C[C@H](N*)c2nccs2)cc1; Aib = CC(C)(N)C(=O)O

Legend:
[1] = test system: HT29 cells; assay: In vitro cytotoxicity, HT29; assay type: cell-based, human; settings: for Avg IC50: HT29 (EDB+ FN negative), four days, ng/ml of antibody; for IC50: Homo sapiens
Experimental: (§1) Proliferating WI38-VA13 or HT29 cells were harvested from culture flasks with non-enzymatic cell dissociation buffer and cultured overnight in 96-well plates (Corning) at 1000 cells/well in a humidified chamber (37° C., 5% CO2). The next day, cells were treated with EDB ADCs or isotype control non-EDB-binding ADCs by adding 50 μl of 3× stocks in duplicate at 10 concentrations. In some experiments, cells were plated at 1500 cells/well and treated the same day. Cells were then incubated with EDB ADCs or isotype control non-EDB-binding ADCs for four days. On harvest day, 50 μl of Cell Titer Glo (Promega) was added to the cells and incubated 0.5 hours at room temperature. Luminescence was measured on a Victor plate reader (Perkin Elmer, Waltham, MA). Relative cell viability was determined as a percentage of untreated control wells. IC50 values were calculated using four-parameter logistic model #203 with XLfit v4.2 (IDBS).

[2] = test system: WI38-VA13 cells; assay: In vitro cytotoxicity, WI38-VA13; assay type: cell-based, human; settings: for IC50: Homo sapiens
Experimental: as §1

[3] = test system: HT29; assay: In vivo efficacy, HT29 colon CLX; parameters: species or system mouse; settings: 3 mg/kg
Excerpt: (§2) To generate CLX models, 8×10^6 to 10×10^6 cells of H-1975, HT29, or Ramos tumor lines were implanted into female athymic nude mice subcutaneously. Ramos and H-1975 cells for inoculation were suspended in 50% and 100% […]® (BD Biosciences, biological call culture substrate), respectively. For the Ramos model, the animals received whole body irradiation (4 Gy) before cell inoculation to facilitate the establishment of tumors. When the average tumor volume reached approximately 160 to 320 mm^3, the animals were randomized into treatment groups, with 8-10 mice in each group. ADCs or vehicle (PBS) were administered intravenously on day 0 and then the animals were dosed once every 4 days for 4 to 8 doses. Tumors were measured once or twice weekly and tumor volume was calculated as volume (mm^3)[…](width×width×length)/2.

[4] = test system: EMT6 syngeneic tumors; assay: Immune response in treated EMT6 syngeneic tumors; assay type: in vivo, mouse
[5] = test system: PDX-NSX-11122; assay: In vivo efficacy, PDX-NSX-11122 NSCLC PDX; parameters: species or system mouse
Excerpt: (§3) To generate PDX models, tumors were collected from donor animals and tumor fragments approximately 3×3 mm were implanted subcutaneously into the flank of female athymic nude mice (for PDX-NSX-11122 model) or NOD SCID mice (for PDX-PAX-13565 and PDX-PAX-12534 models) by using a 10 gage trocar. When average tumor volume reached approximately 160 to 260 mm^3 the mice were randomized into treatment groups, with 7-10 mice in each group. ADCs or vehicle (PBS) dosing regime and administration route as well as tumor measurement procedures are the same as described above for CLX models. […] Tumor growth inhibition is plotted as an average of tumor size±SEM.

[6] = test system: PDX-PAX-12534; assay: In vivo efficacy, PDX-PAX-12534 pancreatic PDX; parameters: species or system mouse; settings: 0.3, 1 and 3 mg/kg
Excerpt: as §3

[7] = test system: H-1975; assay: In vivo efficacy, H-1975 NSCLC CLX; parameters: species or system mouse; settings: intravenous, once every 4 days, doses as in value
Excerpt: as §2

[8] = test system: Ramos; assay: In vivo efficacy, Ramos lymphoma CLX; parameters: species or system mouse; settings: 1 and 3 mg/kg
Excerpt: as §2

[9] = test system: PDX-PAX-13565; assay: In vivo efficacy, PDX-PAX-13565 pancreatic PDX; parameters: species or system mouse; settings: 0.3, 1 and 3 mg/kg
Excerpt: as §3

[10] = target: recombinant cynomolgus monkey 7-EDB-89; assay: SPR binding kinetics to cynomolgus monkey 7-EDB-89
recombinant cynomolgus monkey 7-EDB-89, sequence (as listed by the source): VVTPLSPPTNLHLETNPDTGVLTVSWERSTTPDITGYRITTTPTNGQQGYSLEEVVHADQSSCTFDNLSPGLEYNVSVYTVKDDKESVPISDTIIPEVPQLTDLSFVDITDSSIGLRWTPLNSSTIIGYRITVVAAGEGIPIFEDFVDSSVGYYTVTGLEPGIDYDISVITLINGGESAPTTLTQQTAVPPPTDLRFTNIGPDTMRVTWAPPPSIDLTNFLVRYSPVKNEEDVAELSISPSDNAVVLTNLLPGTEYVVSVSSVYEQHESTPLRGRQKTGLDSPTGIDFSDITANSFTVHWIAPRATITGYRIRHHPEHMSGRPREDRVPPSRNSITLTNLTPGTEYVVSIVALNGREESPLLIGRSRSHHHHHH
Experimental: Binding is detected by surface SPR of laser light refracting from the surface. Analysis of the signal kinetics on-rate (ka) and off-rate (kd), allows the discrimination between non-specific and specific interactions.
The running and sample buffer used was HBS-EP+ buffer (0.01M HEPES, 0.15M NaCl, 3 mM EDTA, and 0.05% v/v surfactant P20 pH7.4). […] All SPR assays were performed at 25° C. with a data collection rate of 1 Hz using a BIACORE® (Cytiva; surface plasmon resonance (SPR) system) T200 instrument (GE Healthcare). The resulting sensorgrams were double referenced (Myszka, D. G., J. Mol. Recognit., 12:279-284, 1999) using both a control surface and buffer injections. The rate constants were determined by fitting the data to a 1:1 Langmuir model with BIACORE® (Cytiva; surface plasmon resonance (SPR) system) T200 evaluation software v2.0 and the equation KD=kd/ka. Each experiment was run in duplicate and the average KD was determined.

[11] = HT-29, unconjugated payload, HT29, read-out: Avg IC50
[12] = WI-38 VA13, unconjugated payload, WI38-VA13, read-out: Avg IC50

In the case of “ADC5: EDB-L19 antibody conjugated to DM1 with disulfide (diS) linker”, the “Avg IC50” value [1] is reported as 237 ng/mL and the “Avg IC50” value ([2]; WI38-VA13 (EDB+ FN positive), four days, ng/ml of antibody) is reported as 268 ng/mL.
Compound `CC[C@H](C)[C@@H]([C@@H](CC(=O)N1CCC[C@H]1[C@H](OC)[C@@H](C)C(=O)N[C@@H](Cc1ccc(N)cc1)c1nccs1)OC)N(C)C(=O)[C@@H](NC(=O)C(C)(C)N(C)C)C(C)C` [Payload-1569] has an IC50 [1, 11] of 0.074 nM and an IC50 [2, 12] of 0.269 nM.
With `CC[C@H](C)[C@@H]([C@@H](CC(=O)N1CCC[C@H]1[C@H](OC)[C@@H](C)C(=O)N[C@@H](Cc1ccc(CS)cc1)c1nccs1)OC)N(C)C(=O)[C@@H](NC(=O)C(C)(C)N(C)C)C(C)C` [Payload-4574] the IC50 ([1]; HT-29, read-out: Avg IC50) was 3.65 nM and the IC50 ([2]; WI-38 VA13, read-out: Avg IC50) was 3.54 nM.
`COc1cc2cc(c1Cl)N(C)C(=O)C[C@H](OC(=O)[C@H](C)N(C)C(=O)CCS)[C@]1(C)O[C@H]1[C@H](C)[C@@H]1C[C@@](O)(NC(=O)O1)[C@H](OC)/C=C/C=C(\C)C2` [Payload-DM1, mertansine, reference compound] showed an IC50 ([1]; HT-29, read-out: Avg IC50) of 2.63 nM and an IC50 ([2]; WI-38 VA13, read-out: Avg IC50) of 3.06 nM.
`CC[C@H](C)[C@@H]([C@@H](CC(=O)N1CCC[C@H]1[C@H](OC)[C@@H](C)C(=O)N[C@@H](Cc1ccc(N)cc1)c1nccs1)OC)N(C)C(=O)[C@@H](NC(=O)[C@]1(C)CCCN1C)C(C)C` [Payload-9411] was tested, and the IC50 [1, 11] was 0.197 nM and the IC50 [2, 12] was 0.519 nM.
`CC[C@H](C)[C@@H]([C@@H](CC(=O)N1CCC[C@H]1[C@H](OC)[C@@H](C)C(=O)N[C@@H](Cc1ccccc1)c1nccs1)OC)N(C)C(=O)[C@@H](NC(=O)C(C)(C)N)C(C)C` [Payload-0101] (H-[Aib]V[Dil][Dolaproine]-Doe) showed an IC50 ([1]; HT-29, read-out: Avg IC50) of 0.09 nM and an IC50 ([2]; WI-38 VA13, read-out: Avg IC50) of 0.392 nM.
“ADC1: EDB-L19 antibody conventionally conjugated via cysteine residues to auristatin 0101 with vc linker” was tested, and the “Avg IC50” value [1] was 15,346 ng/ml, the anti-tumor activity [3] was “tumor regression at the 3 mg/kg dose over time” and the “expression of PDL1” value ([4]; treated tumors) was “increased expression of PDL1”. The “infiltration of CD3+ T cells” value ([4]; treated tumors vs. vehicle controls) was “Increased infiltration of CD3+ T cells”, the anti-tumor activity ([5]; 1 mg/kg) was “delayed tumor growth” and the anti-tumor activity ([5]; 3 mg/kg) was “complete regressions”. The anti-tumor activity ([5]; intravenous, once every 4 days, doses as in value, listed as EDB-L19-vc-0101) was “tumor regression in a dose dependent manner at 3 mg/kg and 1.5 mg/kg; also recorded: greater efficacy as compared to isotype negative control ADCs and ADCs that were generated using a disulfide linker”, the anti-tumor efficacy [6] was “tumor regression in a dose dependent manner” and the anti-tumor activity ([7]; listed as EDB-L19-vc-0101) was “tumor regression in a dose dependent manner at 3 mg/kg, and at as low as 1.5 mg/kg; also recorded: tumor regression at the highest doses evaluated”. The anti-tumor activity [8] was “tumor regression at the 3 mg/kg dose in a dose dependent manner” and the anti-tumor efficacy [9] was “tumor regression in a dose dependent manner”.
“Ab1: L19 human monoclonal IgG1 antibody binding EDB; HC SEQ ID NO: 8, LC SEQ ID NO: 15” gave a Kd [10] of 188 nM, a ka [10] of 560000 M⁻¹ s⁻¹ and a kd [10] of 0.105 s⁻¹.
`Cc1c[nH]c2c1[C@@]13C[C@@H]1CN(C(=O)C14CC5(C(=O)N6C[C@H]7C[C@@]78C6=CC(=O)c6[nH]cc(C)c68)CC15C4)C3=CC2=O` (stereo partly drawn) [Payload-0326] was tested, and the IC50 ([1]; HT-29, read-out: Avg IC50) was 0.049 nM and the IC50 ([2]; WI-38 VA13, read-out: Avg IC50) was < 0.001 nM.
In the case of “ADC10: EDB-L19 antibody conjugated to auristatin 1569 with vc linker”, the “Avg IC50” value [1] is reported as 5,702 ng/ml and the anti-tumor activity [7] is reported as “tumor regression in a dose dependent manner”.
